Data set [1] in a line: NCS‐382–diclofenac interaction study (inhibition of NCS‐382 glucuronidation). The settings on record: mouse; for AUC(0-t): both, in vivo, 25 mg/kg.
Method: In this study, mice (n = 3–4 per group) were assigned (balanced for weight and gender) to one of three treatments and collected at one of three time points (0.5, 1, or 2 h).
A further data set relates to GHB binding sites. The arrangement: method as in Wellendorph et al. 2009. The settings on record: ref Wellendorph et al. 2009; cited from earlier work.
A further data set relates to UGT2B7. The arrangement: method as in Miners et al. 1997; Ammon et al. 2000; King et al. 2001. The settings on record: ref Miners et al. 1997; Ammon et al. 2000; King et al. 2001; cited from earlier work.
For the next data set, the system named is UGT1A9. The arrangement: method as in Miners et al. 1997; Ammon et al. 2000; King et al. 2001. The settings on record: ref Miners et al. 1997; Ammon et al. 2000; King et al. 2001; cited from earlier work.
The subject of data set [2] is gamma‐butyrolactone‐treated mice. The experiment in a line: GBL‐mediated response protection by NCS‐382 in the absence and presence of diclofenac. Format: in vivo. The settings on record: mouse; given alone i.p. (NCS‐382 300 mg/kg or diclofenac 25 mg/kg) 30 min before GBL 100 mg/kg i.p.
Method: Wild‐type C57/B6 mice (mixed gender, n = 7) were bred in‐house, weaned at day of life (DOL) 21, and randomized to a treatment sequence (Fig. 2). […] Thirty minutes later, mice were given an i.p. injection of GBL (100 mg/kg diluted in PBS) and were placed into a clean round arena (~10 inches in diameter) and were allowed access to food and water. Mice were recorded on a camera operated by Serena acquisition software (recorded for 10 min). At 5 and 10 min following GBL, righting reflex was assessed. These procedures were repeated daily with ~24 h in between sessions. Data file names were coded such that treatments were blinded at the time of video data analysis. During video data analysis, the time of which noticeable loss of motor function or coordination (e.g., “loss of motor function”) was observed, and the time taken for the subject to enter a dissociative state and fall into an unsupported prone position (e.g., “time to loss of motion”) was monitored. Righting reflex was evaluated by placing the mouse in a supine position and the time to return to all four paws was recorded based on the timestamp of the playback video. Data for each treatment group were expressed as the mean and standard deviation, and statistical significance was evaluated using one‐way ANOVA and Tukey post hoc t test (P < 0.05).
Wild‐type C57/B6 mice (mixed gender, n = 7) were bred in‐house, weaned at day of life (DOL) 21, and randomized to a treatment sequence. […] Thirty minutes later, mice were given an i.p. injection of GBL (100 mg/kg in PBS) and were placed into a clean round arena (~10 inches in diameter) and were allowed access to food and water. Mice were recorded on a camera operated by Sirena acquisition software (recorded for 10 min). At 5 and 10 min following GBL, righting reflex was assessed. These procedures were repeated daily with ~24 h in between sessions. Data files names were coded such that video analysis was blinded at the time of data recording.
Data set [3] relates to monocarboxylate transporter 1 (MCT1). Further details: method as in Tamai et al. 1999; Wang and Morris 2007. The settings on record: ref Tamai et al. 1999; Wang and Morris 2007; cited from earlier work.
Data set [4] can be described thus: Excretion of NCS‐382 in urine and feces (metabolic cages). Format: in vivo. The settings on record: mouse, reanalyzed samples of study 1. The procedure:
To ensure sufficient volumes of urine could be collected in each of the 2 h time intervals (baseline, 0–2, 2–4, 4–6, 6–8 h), three mice were dosed simultaneously and their urine and feces pooled for analysis. The total dose in μg administered to the three animals was therefore used to calculate the percent of the dose excreted in the urine pooled from all three mice. Animals were allowed ad libitum access to food and water of which the intake of each was monitored.
Samples (3 μL) were injected onto a Kinetex PFP (50 × 2.1 mm, 1.7 μm particle size) UPLC column and eluted with a binary gradient consisting of water with 0.1% formic acid (mobile phase A) and methanol with 0.1% formic acid (mobile phase B). […] Eluent was directed to waste for the initial 0.4 min then to an ABI Sciex 6500 Qtrap tandem mass spectrometer. […] Where necessary, samples were diluted in blank matrices for analysis.
Pharmacokinetic outcomes were obtained via standard noncompartmental methods using Kinetica (version 5.1, Thermo Fisher Scientific, Waltham, MA). The maximum concentration (C max) was obtained directly from the concentration–time profiles. Area under the concentration–time curve (AUC) from time zero to the last collected time point was determined using the trapezoidal method with linear up/log down interpolation.

[5] abbreviates: treatment Diclofenac 25 mg/kg alone.
The mark [6] stands for this setting: treatment NCS‐382 300 mg/kg + Diclofenac 25 mg/kg.
Setting [7] is: treatment NCS‐382 300 mg/kg alone.

On to `O=C(O)Cc1ccccc1Nc1c(Cl)cc(O)cc1Cl` [4‐OH‐Diclofenac, 4′‐hydroxydiclofenac], for which the “Sera AUC0–2 h [90% CI], relative quantification (peak area ratio)” value in data set [1] (setting [5]) was 6.76 [5.18–8.33] PAR*h; in data set [1] (setting [6]), 8.28 [7.60–8.97] PAR*h.
With `O=C(O)Cc1cc(O)ccc1Nc1c(Cl)cccc1Cl` [5‐OH‐Diclofenac, 5‐hydroxydiclofenac], the AUC(0-t) in data set [1] is 61.3 µM·h. Moreover, the “Brain AUC0–2 h [90% CI]” value in data set [1] (setting [5]) is 4.60 [4.55–4.65] nmol g/tissue*h; in data set [1] (setting [6]), 5.20 [4.77–5.62] ^a nmol g/tissue*h.
In the case of `O=C(Cc1ccccc1Nc1c(Cl)cccc1Cl)O[C@@H]1O[C@H](C(=O)O)[C@@H](O)[C@H](O)[C@H]1O` [Diclofenac glucuronide], in data set [1] (setting [5]), the “Brain AUC0–2 h [90% CI], relative quantification (peak area ratio)” value was 5.87 [4.46–7.28] PAR*h and the “Sera AUC0–2 h [90% CI], relative quantification (peak area ratio)” value is 8.57 [6.09–11.04] PAR*h. Further, in data set [1] (setting [6]), the “Brain AUC0–2 h [90% CI], relative quantification (peak area ratio)” value is 3.96 [3.25–4.67] PAR*h and the “Sera AUC0–2 h [90% CI], relative quantification (peak area ratio)” value is 4.67 [4.21–5.13] ^a PAR*h.
In general, Ki refers to a measure of affinity in units of concentration, obtained from inhibition or displacement. As to `O=C(O)Cc1ccccc1Nc1c(Cl)cccc1Cl` [Diclofenac], in the data set on GHB binding sites, the “binding to GHB binding sites in rat brain” value is recorded as “ligand for the GHB binding sites in rat brain”. Further, the figures for the Ki with UGT2B7 and in the data set on UGT1A9 were […] and 11 µM, respectively. For the same molecule, the “time to loss of motor function compared to vehicle control” value in data set [2] is given as “did not have a measureable effect”. This molecule yielded an AUC(0-t) in data set [1] of 232 µM·h. In addition, the entries for the “Brain AUC0–2 h [90% CI]” value in data set [1] (setting [5]) and in data set [1] (setting [6]) were 33.8 [28.2–39.4] nmol/g/tissue*h and 44.9 [39.5–50.3] ^a nmol/g/tissue*h, respectively.
As a reminder, the Km is the substrate concentration at which the rate is half of its maximum. For the molecule `O=C(O)CCCO` [GHB, gamma‐hydroxybutyric acid], the Km in data set [3] is 4.6 to 7.7 mM.
Take `O=C(O)/C=C1\CCCc2ccccc2C1=O` [NCS dehydrogenation]: the “detection of NCS‐382 metabolites in urine and feces” value in data set [4] is “found in neither”. The “Sera AUC0–2 h [90% CI], relative quantification (peak area ratio)” value in data set [1] (setting [6]) is 2.72 [2.26–3.18] ^a PAR*h; in data set [1] (setting [7]) it was 1.99 [1.82–2.16] PAR*h.
As for `O=C(O)/C=C1\CCCc2ccccc2C1O[C@@H]1O[C@H](C(=O)O)[C@@H](O)[C@H](O)[C@H]1O` (stereo partly shown) [NCS‐Glucuronide], the “detection of NCS‐382 metabolites in urine and feces” value in data set [4] is “detectable in both the urine and feces”. Further, in data set [1] (setting [6]), the “Brain AUC0–2 h [90% CI], relative quantification (peak area ratio)” value is 4.58 [3.61–5.55] PAR*h and the “Sera AUC0–2 h [90% CI], relative quantification (peak area ratio)” value is 2.86 [2.55–3.18] PAR*h. In data set [1] (setting [7]), the “Brain AUC0–2 h [90% CI], relative quantification (peak area ratio)” value is 3.28 [2.53–4.03] PAR*h and the “Sera AUC0–2 h [90% CI], relative quantification (peak area ratio)” value is 3.65 [2.65–4.65] PAR*h.

The record behind these values is paper PMC5115179 (Pharmacology Research & Perspectives, 2016).
